In ChEMBL document CHEMBL1201862, “PubChem BioAssay data set” (2004):
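96-well plates; 48 h exposure; 5 concentrations. Endpoints by linear interpolation between flanking doses. Not reached: highest tested concentration assigned. GI50 = concentration required for 50% inhibition of growth.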 Activity calls are given as the source filed them. Cut-off read from the data, not from the text of the source: active = GI50 up to about 1.1 µM and inactive = higher.

Tests used:
Experiment in all cases: NCI anticancer screen, dose series, 48 h
[1] = tested on: RPMI-8226
[2] = tested on: A549
[3] = tested on: SN12C
[4] = tested on: Hs-578T
[5] = tested on: OVCAR-4
[6] = tested on: HOP-92
[7] = tested on: U-251
[8] = tested on: 786-0
[9] = tested on: PC-3
[10] = tested on: A498
[11] = tested on: SR
[12] = tested on: NCI-H23
[13] = tested on: MDA-MB-231
[14] = tested on: SF-539
[15] = tested on: ACHN
[16] = tested on: M14
[17] = tested on: HCC 2998
[18] = tested on: SK-MEL-28

SMILES: Clc1ccccc1C(Nc1ncccn1)Nc1ncccn1
- GI50 [1]: > 100 µM (inactive)
- GI50 [2]: > 100 µM (inactive)
- GI50 [3]: > 100 µM (inactive)
- GI50 [4]: > 100 µM (inactive)
- GI50 [5]: > 100 µM (inactive)
- GI50 [6]: > 100 µM (inactive)
- GI50 [7]: > 100 µM (inactive)
- GI50 [8]: > 100 µM (inactive)
- GI50 [9]: > 100 µM (inactive)
- GI50 [10]: > 100 µM (inactive)
- GI50 [11]: 8.15 µM (inactive)
- GI50 [12]: > 100 µM (inactive)
- GI50 [13]: > 100 µM (inactive)
- GI50 [14]: > 100 µM (inactive)
- GI50 [15]: > 100 µM (inactive)
- GI50 [16]: > 100 µM (inactive)
- GI50 [17]: > 100 µM (inactive)
- GI50 [18]: > 100 µM (inactive)

SMILES: COc1ccc(CCN2C(=O)C=CC2=O)cc1OC
- GI50 [1]: 1.77 µM (inactive)
- GI50 [2]: 23 µM (inactive)
- GI50 [3]: 17.5 µM (inactive)
- GI50 [4]: 32.4 µM (inactive)
- GI50 [5]: 1.88 µM (inactive)
- GI50 [6]: 15.4 µM (inactive)
- GI50 [7]: 19.5 µM (inactive)
- GI50 [8]: 3.07 µM (inactive)
- GI50 [9]: 18.7 µM (inactive)
- GI50 [10]: 16.7 µM (inactive)
- GI50 [11]: 2.25 µM (inactive)
- GI50 [12]: 22 µM (inactive)
- GI50 [13]: 14.1 µM (inactive)
- GI50 [14]: 17.3 µM (inactive)
- GI50 [15]: 1.77 µM (inactive)
- GI50 [16]: 9.84 µM (inactive)
- GI50 [17]: 17.4 µM (inactive)
- GI50 [18]: 16.4 µM (inactive)

SMILES: COC(=O)c1c2c(cc3c1CC1(Cc4cc5c(c(C=O)c4C1)CCC5)C3)CCC2 (configuration not stated)
- GI50 [1]: 55.1 µM (inactive)
- GI50 [2]: 27.9 µM (inactive)
- GI50 [4]: 92.7 µM (inactive)
- GI50 [5]: > 100 µM (inactive)
- GI50 [6]: 19.3 µM (inactive)
- GI50 [7]: 19.8 µM (inactive)
- GI50 [8]: 29.4 µM (inactive)
- GI50 [9]: 30.8 µM (inactive)
- GI50 [10]: 33.6 µM (inactive)
- GI50 [11]: 19.3 µM (inactive)
- GI50 [12]: 47.8 µM (inactive)
- GI50 [13]: 28.4 µM (inactive)
- GI50 [14]: 75.5 µM (inactive)
- GI50 [15]: 32.9 µM (inactive)
- GI50 [16]: 22.2 µM (inactive)
- GI50 [17]: 24.7 µM (inactive)
- GI50 [18]: 52.5 µM (inactive)

SMILES: COC(=O)C1=C(OC(=O)/C=C/c2ccc(Cl)cc2)C(C(=O)OC)[C@]2(O)[C@@H](C(=O)OC)[C@H]1C[C@@H](c1ccccc1)[C@@H]2C(=O)OC (some centres not stated)
- GI50 [1]: 3.92 µM (inactive)
- GI50 [2]: 3.7 µM (inactive)
- GI50 [3]: 7.36 µM (inactive)
- GI50 [4]: 7.71 µM (inactive)
- GI50 [5]: 5.19 µM (inactive)
- GI50 [6]: 2.58 µM (inactive)
- GI50 [7]: 4.74 µM (inactive)
- GI50 [8]: 4.92 µM (inactive)
- GI50 [9]: 5.65 µM (inactive)
- GI50 [10]: 6.04 µM (inactive)
- GI50 [11]: 4.5 µM (inactive)
- GI50 [12]: 3.44 µM (inactive)
- GI50 [13]: 12.4 µM (inactive)
- GI50 [14]: 4.68 µM (inactive)
- GI50 [15]: 4.74 µM (inactive)
- GI50 [16]: 6.1 µM (inactive)
- GI50 [17]: 7.83 µM (inactive)
- GI50 [18]: 17.3 µM (inactive)

SMILES: Cc1nc(Nc2ccc(Cl)cc2Cl)sc1C(=O)Nc1ccccc1
- GI50 [1]: 29.2 µM (inactive)
- GI50 [2]: 36.6 µM (inactive)
- GI50 [3]: > 100 µM (inactive)
- GI50 [4]: 47 µM (inactive)
- GI50 [5]: 73.6 µM (inactive)
- GI50 [6]: 31.3 µM (inactive)
- GI50 [7]: 25.9 µM (inactive)
- GI50 [8]: 53.6 µM (inactive)
- GI50 [9]: 31 µM (inactive)
- GI50 [10]: > 100 µM (inactive)
- GI50 [11]: 28.2 µM (inactive)
- GI50 [12]: 46 µM (inactive)
- GI50 [13]: 56.5 µM (inactive)
- GI50 [14]: > 100 µM (inactive)
- GI50 [15]: 36.1 µM (inactive)
- GI50 [16]: 80.9 µM (inactive)
- GI50 [17]: 72.1 µM (inactive)
- GI50 [18]: > 100 µM (inactive)

SMILES: COc1cc2cc(C(=O)N3CC(CCl)c4c3cc(NCCN)c3ccccc43)[nH]c2c(OC)c1OC (configuration not stated)
- GI50 [1]: < 0.01 µM (active)
- GI50 [2]: < 0.01 µM (active)
- GI50 [3]: < 0.01 µM (active)
- GI50 [4]: < 0.01 µM (active)
- GI50 [5]: 0.0116 µM (active)
- GI50 [6]: < 0.01 µM (active)
- GI50 [7]: < 0.01 µM (active)
- GI50 [8]: < 0.01 µM (active)
- GI50 [9]: < 0.01 µM (active)
- GI50 [10]: < 0.01 µM (active)
- GI50 [11]: < 0.01 µM (active)
- GI50 [12]: < 0.01 µM (active)
- GI50 [13]: < 0.01 µM (active)
- GI50 [14]: < 0.01 µM (active)
- GI50 [15]: < 0.01 µM (active)
- GI50 [16]: < 0.01 µM (active)
- GI50 [17]: < 0.01 µM (active)
- GI50 [18]: 0.0134 µM (active)
